Measured values from PubChem BioAssay (NCI).
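Results reflect a 48-hour exposure of cells in 96-well plates to compound at five concentrations. GI50 marks 50% less growth. At the TGI there is no net growth.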

What was measured:
Test in all cases: inhibition of tumour cell growth, NCI panel, 48 h
[1] = system: 786-0 renal
[2] = system: A498 renal
[3] = system: A549 NSCLC
[4] = system: ACHN renal
[5] = system: BT-549 breast
[6] = system: CAKI-1 renal
[7] = system: CCRF-CEM leukemia
[8] = system: COLO 205 colon
[9] = system: DU-145 prostate
[10] = system: EKVX NSCLC
[11] = system: HCC-2998 colon
[12] = system: HCT-116 colon
[13] = system: HCT-15 colon
[14] = system: HL-60(TB) leukemia
[15] = system: HOP-62 NSCLC
[16] = system: HOP-92 NSCLC
[17] = system: HS 578T breast
[18] = system: HT29 colon
[19] = system: IGROV1 ovarian
[20] = system: K-562 leukemia
[21] = system: KM12 colon
[22] = system: LOX IMVI melanoma
[23] = system: M14 melanoma
[24] = system: MALME-3M melanoma
[25] = system: MCF7 breast
[26] = system: MDA-MB-231 breast
[27] = system: MDA-MB-435
[28] = system: MOLT-4 leukemia
[29] = system: NCI-H226 lung
[30] = system: NCI-H23 lung
[31] = system: NCI-H460 lung
[32] = system: NCI-H522 lung
[33] = system: NCI/ADR-RES ovarian
[34] = system: OVCAR-3 ovarian
[35] = system: OVCAR-4 ovarian
[36] = system: OVCAR-5 ovarian
[37] = system: OVCAR-8 ovarian
[38] = system: PC-3 prostate
[39] = system: RPMI-8226 leukemia
[40] = system: RXF 393 renal
[41] = system: SF-268 CNS
[42] = system: SF-295 CNS
[43] = system: SF-539 CNS
[44] = system: SK-MEL-2 melanoma
[45] = system: SK-MEL-28 melanoma
[46] = system: SK-MEL-5 melanoma
[47] = system: SK-OV-3 ovarian
[48] = system: SN12C renal
[49] = system: SNB-19 CNS
[50] = system: SNB-75 CNS
[51] = system: SR leukemia
[52] = system: SW-620 colon
[53] = system: T-47D breast
[54] = system: TK-10 renal
[55] = system: U251 CNS
[56] = system: UACC-257 melanoma
[57] = system: UACC-62 melanoma
[58] = system: UO-31 renal

O=C(NNc1nc2cc(F)ccc2n2cccc12)c1ccncn1
GI50 [1]: 0.412 µM
TGI [1]: > 15.7 µM
GI50 [2]: 0.745 µM
TGI [2]: 3.73 µM
GI50 [3]: 0.253 µM
TGI [3]: > 30 µM
GI50 [4]: 0.179 µM
TGI [4]: > 30 µM
GI50 [5]: 0.841 µM
TGI [5]: > 21.3 µM
GI50 [6]: 0.295 µM
TGI [6]: > 30 µM
GI50 [7]: 0.0327 µM
TGI [7]: 0.428 µM
GI50 [8]: 0.272 µM
TGI [8]: > 13.5 µM
GI50 [9]: 0.348 µM
TGI [9]: > 23.6 µM
GI50 [10]: 0.234 µM
TGI [10]: > 16.1 µM
GI50 [11]: 0.738 µM
TGI [11]: > 23.1 µM
GI50 [12]: 0.153 µM
TGI [12]: > 11 µM
GI50 [13]: 0.0704 µM
TGI [13]: > 20.2 µM
GI50 [14]: 0.293 µM
GI50 [15]: 0.0941 µM
TGI [15]: 9.12 µM
GI50 [16]: 0.287 µM
TGI [16]: 11.7 µM
GI50 [17]: 1.81 µM
TGI [17]: > 24.9 µM
GI50 [18]: 0.354 µM
TGI [18]: > 13.5 µM
GI50 [19]: 0.211 µM
TGI [19]: > 30 µM
GI50 [20]: 0.176 µM
TGI [20]: > 9.89 µM
GI50 [21]: 0.278 µM
TGI [21]: > 22.5 µM
GI50 [22]: 0.168 µM
TGI [22]: > 9.23 µM
GI50 [23]: 0.255 µM
TGI [23]: > 11 µM
GI50 [24]: 0.91 µM
TGI [24]: > 21.2 µM
GI50 [25]: 0.27 µM
TGI [25]: > 15.3 µM
GI50 [26]: 0.766 µM
TGI [26]: > 30 µM
GI50 [27]: 1.17 µM
TGI [27]: > 30 µM
GI50 [28]: 0.109 µM
GI50 [29]: 0.548 µM
TGI [29]: 10.3 µM
GI50 [30]: 0.437 µM
TGI [30]: > 30 µM
GI50 [31]: 0.0764 µM
TGI [31]: > 7.44 µM
GI50 [32]: 0.429 µM
TGI [32]: > 6.94 µM
GI50 [33]: 0.242 µM
TGI [33]: 9.35 µM
GI50 [34]: 0.191 µM
TGI [34]: > 7.02 µM
GI50 [35]: 0.162 µM
TGI [35]: > 8.25 µM
GI50 [36]: 1.3 µM
TGI [36]: > 30 µM
GI50 [37]: 0.277 µM
TGI [37]: > 28.4 µM
GI50 [38]: 0.183 µM
TGI [38]: 13.6 µM
GI50 [39]: 0.242 µM
TGI [39]: 2.3 µM
GI50 [40]: 0.612 µM
TGI [40]: 3.07 µM
GI50 [41]: 0.234 µM
TGI [41]: > 30 µM
GI50 [42]: 0.105 µM
TGI [42]: 6.75 µM
GI50 [43]: 0.435 µM
TGI [43]: > 9.3 µM
GI50 [44]: 1.13 µM
TGI [44]: > 17 µM
GI50 [45]: 0.567 µM
TGI [45]: > 30 µM
GI50 [46]: 0.398 µM
TGI [46]: 5.41 µM
GI50 [47]: 0.363 µM
TGI [47]: 14 µM
GI50 [48]: 0.564 µM
TGI [48]: > 30 µM
GI50 [49]: 0.396 µM
TGI [49]: > 30 µM
GI50 [50]: 0.316 µM
TGI [50]: > 25.8 µM
GI50 [51]: 0.0711 µM
GI50 [52]: 0.284 µM
TGI [52]: > 24.1 µM
GI50 [53]: 0.301 µM
TGI [53]: > 18.3 µM
GI50 [54]: 0.361 µM
TGI [54]: > 19 µM
GI50 [55]: 0.163 µM
TGI [55]: > 30 µM
GI50 [56]: 0.712 µM
TGI [56]: 8.25 µM
GI50 [57]: 0.255 µM
TGI [57]: 2.49 µM
GI50 [58]: 0.0856 µM
TGI [58]: 4.18 µM
